Where two headings read alike, the source gives them in different places.
Details: 6 days at 80° C.
Description: Nitrogen of 99% purity (vol/vol) purity was used as an inert gas. The samples were stored at 80° C. for 6 days, and then the assay of impurities was determined by High Performance Liquid Chromatography.
The oxygen content in the vials was determined by gas chromatography with a mass spectrometric detector (GC/MS).
The degradation products were determined by […] Agilent Technologies (Waldbronn, Germany) model HP 1100. Chromatograms were recorded by a UV detector at 250 nm. The column Chromolit Performance RP-18e 100×4.6 mm (Merck, Darmstadt, Germany) and the gradient of mobile phase A: 20 mM ammonium acetate pH 4.0, 5% (v/v) tetrahydrofuran and 25% (v/v) acetonitrile and the gradient of mobile phase B: 20 mM ammonium acetate pH 4.0, 5% (v/v) tetrahydrofuran and 70 (v/v) acetonitrile were used. The composition of the mobile phase was changed so that initially and to minute 2 there was 25% of mobile phase B (75% of mobile phase A), from minute 2 to minute 4.7 the composition of the mobile phase changed linearly to 100% mobile phase B and it remained such to the end of the analysis at minute 5.5. Flow rate of the mobile phase was 7 ml/min. […] The samples of atorvastatin calcium were dissolved in the solvent 200 mM Tris p H 7, 40% (v/v) acetonitrile of the concentration 0.5 mg/ml.

[1] = oxygen content in atmosphere 0.6 %
[2] = oxygen content in atmosphere 2.8 %, hemi calcium salt
[3] = oxygen content in atmosphere 12.2 %, hemi calcium salt
[4] = oxygen content in atmosphere 21.3 %, hemi calcium salt

Structure (SMILES) | Increase in the assay of degradation products in % in reference to starting active substance [1] [%] | Increase in the assay of degradation products in % in reference to starting active substance [2] [%] | Increase in the assay of degradation products in % in reference to starting active substance [3] [%] | Increase in the assay of degradation products in % in reference to starting active substance [4] [%]
CC(C)c1c(C(=O)Nc2ccccc2)c(-c2ccccc2)c(-c2ccc(F)cc2)n1CC[C@@H](O)C[C@@H](O)CC(=O)O.CC(C)c1c(C(=O)Nc2ccccc2)c(-c2ccccc2)c(-c2ccc(F)cc2)n1CC[C@@H](O)C[C@@H](O)CC(=O)O.CC(C)c1c(C(=O)Nc2ccccc2)c(-c2ccccc2)c(-c2ccc(F)cc2)n1CC[C@@H](O)C[C@@H](O)CC(=O)[O-].CC(C)c1c(C(=O)Nc2ccccc2)c(-c2ccccc2)c(-c2ccc(F)cc2)n1CC[C@@H](O)C[C@@H](O)CC(=O)[O-].[Ca+2] (relative stereo) [Crystalline atorvastatin calcium, (R—(R*, R*))-2-(4-fluorophenyl)-β,δ-dihydroxy-5-(1-methylethyl)-3-phenyl-4((phenylamino)carbonyl)-1H-pyrrole-1-heptanoic acid hemi calcium salt] | 0 | 0 | 0.02 | 0.05
CC(C)c1c(C(=O)Nc2ccccc2)c(-c2ccccc2)c(-c2ccc(F)cc2)n1CC[C@@H](O)C[C@@H](O)CC(=O)O.CC(C)c1c(C(=O)Nc2ccccc2)c(-c2ccccc2)c(-c2ccc(F)cc2)n1CC[C@@H](O)C[C@@H](O)CC(=O)O.CC(C)c1c(C(=O)Nc2ccccc2)c(-c2ccccc2)c(-c2ccc(F)cc2)n1CC[C@@H](O)C[C@@H](O)CC(=O)[O-].CC(C)c1c(C(=O)Nc2ccccc2)c(-c2ccccc2)c(-c2ccc(F)cc2)n1CC[C@@H](O)C[C@@H](O)CC(=O)[O-].[Ca+2] (relative stereo) [Amorphous atorvastatin calcium, (R—(R*, R*))-2-(4-fluorophenyl)-β,δ-dihydroxy-5-(1-methylethyl)-3-phenyl-4((phenylamino)carbonyl)-1H-pyrrole-1-heptanoic acid hemi calcium salt] | 0 | 0.13 | 0.49 | 0.89

— US20090012150A1, “Stablized Pharmaceutical Composition Comprising an Amorphous Active Substance” (priority 2002, published 2009)
